Measurements from US10016382B2, “Method for decreasing skeletal muscle damage and/or oxidative stress in mammals” (LONZA INC., priority 2014, dated 2018).
“And” between values parts separate entries of the source, which are not always exact repeats. Identical values can stand only once.

Assays:
Labrador Retrievers [1] = assay: Activity by Actical monitors, long (endurance) runs, Example 1; format: in vivo, dog; settings: Ex.1, 250 mg/d; for Activity long runs, Least Sq Mean: average of 13 weekly long runs, mixed model
Source text: Each test dog wore an Actical activity monitor from Philips Respironics on a collar for the short higher intensity runs and also wore an Actical activity monitor for the weekly longer endurance runs. The activity data was downloaded into spread sheets along with each dogs identity. Twenty four hours after each long run during the 13 wk running program each of the dogs were scored by kennel staff for soreness or any type of lameness The exercise program was decreased in a tapering program during wk 11 and 12 to allow the dogs to rest for the final long run completed on wk 13. Pre-run serum samples from each test dog was taken 24 hr before the last endurance run. The heart rate and basal body temperature was determined for each test dog prior to the last long endurance run. The distance and number of sprints affiliated with the short runs (marks) were decreased during wk 11 back to 1200 total yd/d or 2400 yd/wk and decreased again on wk 12 to 600 yd/d or a total of 1200 yd/wk to provide rest for the final long run on wk 13. The weekly endurance run was 5 miles in the beginning, increased by ½ mile per wk and was increased to a distance of 10 miles on the 10th week. The dogs ran only a 5 mile endurance run on wk 11 and only a 2 mile endurance run on wk 12 in order to rest for the final long run during the 13th wk. The endurance (long) runs for the 40 dogs were carried out on the 5th and 6th day of each wk for both treatments. Half of the dogs were run on Friday (5th d) and half of the dogs were run on the Saturday (6th d). The exercise regimen was finalized during the 13th week of the study by resting the dogs for 3 days and then running half of the dogs from each group for a 15 mile endurance run on Monday and the remaining 20 dogs were run the 15 mile endurance run on Tuesday. The longer endurance type runs were slightly slower to enhance fat oxidation and represent an exercise intensity equivalent to 50%-65% VO2 max. Performance and Recovery Time: An Actical monitor (Philips Respironics) was worn around the neck of each dog on a collar and utilized to evaluate the amount of movement (measured total movements and intensity) for each dog for the purpose of evaluating equal work between treatments and also to evaluate the individual work intensity while completing the daily retrieves. Each dog wore the Actical monitor for each long run and wore the Actical monitor for the final 15 mile run. The Actical monitor data was downloaded to a computer for evaluation. Statistical Methods: GraphPad Prism 6.0 was used to compare means between groups for run time, food intake, body weight, and changes in blood chemistry using an unpaired t-test. Results were considered significant if a p-value of 0.05 was obtained. JMP 10.0.2 was used to create a mixed model for long runs, short runs, body composition, and blood chemistry.

Labrador Retrievers [2] = assay: Oxygen consumption on treadmill (Oxymax open-circuit calorimeter), Example 2 part three; format: in vivo, dog
Description: Sixteen Labrador Retrievers ranging in age from 1.5 to 3 years were fed low carnitine basal diets with and without added L-carnitine for a 37 week period that included part one and two of the study. Eight (4 male and 4 female) of the test L-carnitine dogs were each fed 3.75 g sugar and 250 mg of L-carnitine, while the other eight dogs (4 male and 4 female) were fed only 4 g of sugar each day for the experimental period. The sixteen test dogs were fed the same diet for parts one, two, and three of the study. During part three of the study, the 16 test dogs were exclusively exercised on the industry sized canine treadmill. Initial Oxymax data was developed for each of the test dogs at various times and speeds in order to determine appropriate speeds on the treadmill required to achieve maximum VO2 concentration. The dogs were run for 15 minutes at 6.5 mph to determine VO2 max. The 16 test dogs were then ran at 50% VO2 max (equivalent to 4 mph) on the treadmill for 30 minutes to determine total energy expenditure (heat production). The system used to acquire information on volume of oxygen consumption and energy expenditure was an Open-Circuit calorimeter, which employed air from the surrounding environment. A mask specially designed for dogs was used to recover the gas sample and ventilate the dog. A small sample was drawn for gas analysis and dried to assure that the readings were made in a sample that was not under the influence of water vapor air exiting the chamber. The O2 and CO2 sensors were connected to software, and instant values of O2 and CO2 were measured. The 16 test dogs (8 L-carnitine dogs, 4 male and 4 female, and 8 control dogs, 4 male and 4 female) were exercised at a warm up speed of 2 mph for 5 minutes prior to running at VO2 max for 15 minutes at 6.5 mph. The next week, the test dogs ran again at a warm up speed of 2 mph for 5 minutes and then at 50% VO2 max for 30 minutes at 4 mph. The statistical analysis for gas exchange was analyzed by a factorial design 2×2 (2 genders and 2 diet treatments) and 2×2×2 (2 genders, 2 diets, 2 speeds) at p-value<0.05. The variable maximum oxygen consumption (Max VO2) was the highest amount of oxygen consumption during the exercise time. The mean oxygen consumption (Mean VO2) was the average amount of oxygen consumption during the exercise time. Oxygen consumption was reported on a per L/kg BW/h basis.

[3] = Ex.2 part three, 250 mg/d, females, 6.5 mph for 15 min (VO2 max)
[4] = Ex.2 part three, 250 mg/d, females, 50% VO2 max (4 mph, 30 min)
[5] = Ex.2 part three, 250 mg/d, females, average of combined speeds (4 mph and 6.5 mph)
[6] = combined speeds 4.0 and 6.5 (50% VO2 Max and VO2 Max), diet main effect, both genders
[7] = combined speeds 4.0 and 6.5 (50% VO2 Max and VO2 Max), female dogs
[8] = combined speeds 4.0 and 6.5 (50% VO2 Max and VO2 Max), male dogs
[9] = treadmill speed 4 for 30 min (50% VO2 Max), diet main effect, both genders
[10] = treadmill speed 4 for 30 min (50% VO2 Max), female dogs
[11] = treadmill speed 4 for 30 min (50% VO2 Max), male dogs
[12] = treadmill speed 6.5 for 15 min (VO2 Max), diet main effect, both genders
[13] = treadmill speed 6.5 for 15 min (VO2 Max), female dogs
[14] = treadmill speed 6.5 for 15 min (VO2 Max), male dogs

C[N+](C)(C)C[C@H](O)CC(=O)[O-] [L-carnitine]
Activity long runs, APM/lb Mean (Labrador Retrievers [1]; Week 1, both sexes): 1535 Movements/Mile/LB BW
Activity long runs, APM/lb Mean (Labrador Retrievers [1]; Week 1, females): 1825 Movements/Mile/LB BW
Activity long runs, APM/lb Mean (Labrador Retrievers [1]; Week 1, males): 1298 Movements/Mile/LB BW
Activity long runs, APM/lb Mean (Labrador Retrievers [1]; Week 2, both sexes): 1385 Movements/Mile/LB BW
Activity long runs, APM/lb Mean (Labrador Retrievers [1]; Week 2, females): 1616 Movements/Mile/LB BW
Activity long runs, APM/lb Mean (Labrador Retrievers [1]; Week 2, males): 1177 Movements/Mile/LB BW
Activity long runs, APM/lb Mean (Labrador Retrievers [1]; Week 3, both sexes): 1298 Movements/Mile/LB BW
Activity long runs, APM/lb Mean (Labrador Retrievers [1]; Week 3, females): 1559 Movements/Mile/LB BW
Activity long runs, APM/lb Mean (Labrador Retrievers [1]; Week 3, males): 1065 Movements/Mile/LB BW
Activity long runs, APM/lb Mean (Labrador Retrievers [1]; Week 4, both sexes): 1334 Movements/Mile/LB BW
Activity long runs, APM/lb Mean (Labrador Retrievers [1]; Week 4, females): 1522 Movements/Mile/LB BW
Activity long runs, APM/lb Mean (Labrador Retrievers [1]; Week 4, males): 1093 Movements/Mile/LB BW
Activity long runs, APM/lb Mean (Labrador Retrievers [1]; Week 5, both sexes): 1288 Movements/Mile/LB BW
Activity long runs, APM/lb Mean (Labrador Retrievers [1]; Week 5, females): 1582 Movements/Mile/LB BW
Activity long runs, APM/lb Mean (Labrador Retrievers [1]; Week 5, males): 1048 Movements/Mile/LB BW
Activity long runs, APM/lb Mean (Labrador Retrievers [1]; Week 6, both sexes): 1278 Movements/Mile/LB BW
Activity long runs, APM/lb Mean (Labrador Retrievers [1]; Week 6, females): 1472 Movements/Mile/LB BW
Activity long runs, APM/lb Mean (Labrador Retrievers [1]; Week 6, males): 1105 Movements/Mile/LB BW
Activity long runs, APM/lb Mean (Labrador Retrievers [1]; Week 7, both sexes): 1264 Movements/Mile/LB BW
Activity long runs, APM/lb Mean (Labrador Retrievers [1]; Week 7, females): 1391 Movements/Mile/LB BW
Activity long runs, APM/lb Mean (Labrador Retrievers [1]; Week 7, males): 1162 Movements/Mile/LB BW
Activity long runs, APM/lb Mean (Labrador Retrievers [1]; Week 8, both sexes): 1241 Movements/Mile/LB BW
Activity long runs, APM/lb Mean (Labrador Retrievers [1]; Week 8, females): 1437 Movements/Mile/LB BW
Activity long runs, APM/lb Mean (Labrador Retrievers [1]; Week 8, males): 1081 Movements/Mile/LB BW
Activity long runs, APM/lb Mean (Labrador Retrievers [1]; Week 9, both sexes): 1194 Movements/Mile/LB BW
Activity long runs, APM/lb Mean (Labrador Retrievers [1]; Week 9, females): 1355 Movements/Mile/LB BW
Activity long runs, APM/lb Mean (Labrador Retrievers [1]; Week 9, males): 1062 Movements/Mile/LB BW
Activity long runs, APM/lb Mean (Labrador Retrievers [1]; Week 10, both sexes): 1192 Movements/Mile/LB BW
Activity long runs, APM/lb Mean (Labrador Retrievers [1]; Week 10, females): 1385 Movements/Mile/LB BW
Activity long runs, APM/lb Mean (Labrador Retrievers [1]; Week 10, males): 1018 Movements/Mile/LB BW
Activity long runs, APM/lb Mean (Labrador Retrievers [1]; Week 11, both sexes): 1364 Movements/Mile/LB BW
Activity long runs, APM/lb Mean (Labrador Retrievers [1]; Week 11, females): 1655 Movements/Mile/LB BW
Activity long runs, APM/lb Mean (Labrador Retrievers [1]; Week 11, males): 1126 Movements/Mile/LB BW
Activity long runs, APM/lb Mean (Labrador Retrievers [1]; Week 13, both sexes): 1116 Movements/Mile/LB BW
Activity long runs, APM/lb Mean (Labrador Retrievers [1]; Week 13, females): 1251 Movements/Mile/LB BW
Activity long runs, APM/lb Mean (Labrador Retrievers [1]; Week 13, males): 1006 Movements/Mile/LB BW
Activity long runs, Least Sq Mean (Labrador Retrievers [1]; both sexes): 1317 Movements/Mile/LB BW and 1317.0647 Movements/Mile/LB BW
Activity long runs, Least Sq Mean (Labrador Retrievers [1]; females): 1509 Movements/Mile/LB BW and 1509.2493 Movements/Mile/LB BW
Activity long runs, Least Sq Mean (Labrador Retrievers [1]; males): 1124 Movements/Mile/LB BW and 1124.8801 Movements/Mile/LB BW
Max VO2 consumption (Labrador Retrievers [2]; [3]): 60.8 mL/min/kg
Mean VO2 (Labrador Retrievers [2]; [3]): 3.11 L/kg/h
Max VO2 consumption (Labrador Retrievers [2]; [4]): 42 mL/min/kg
Mean VO2 (Labrador Retrievers [2]; [4]): 1.99 L/kg/h
Maximum VO2 consumption (Labrador Retrievers [2]; [5]): 50.3 mL/min/kg
Mean VO2 consumption (Labrador Retrievers [2]; [5]): 41.7 mL/min/kg
Max VO2 (Labrador Retrievers [2]; [6]): 2.80 L/kg/h
Mean VO2 (Labrador Retrievers [2]; [6]): 2.40 L/kg/h
Max VO2 (Labrador Retrievers [2]; [7]): 3.02 a L/Kg/h
Mean VO2 (Labrador Retrievers [2]; [7]): 2.50 a L/Kg/h
Max VO2 (Labrador Retrievers [2]; [8]): 2.57 ab L/Kg/h
Mean VO2 (Labrador Retrievers [2]; [8]): 2.31 ab L/Kg/h
Max VO2 (Labrador Retrievers [2]; [9]): 2.39 L/kg/h
Mean VO2 (Labrador Retrievers [2]; [9]): 1.98 L/kg/h
Max VO2 (Labrador Retrievers [2]; [10]): 2.52 L/kg/h
Mean VO2 (Labrador Retrievers [2]; [10]): 1.99 L/kg/h
Max VO2 (Labrador Retrievers [2]; [11]): 2.26 L/kg/h
Mean VO2 (Labrador Retrievers [2]; [11]): 1.97 L/kg/h
Max VO2 (Labrador Retrievers [2]; [12]): 3.27 L/kg/h
Mean VO2 (Labrador Retrievers [2]; [12]): 2.89 L/kg/h
Max VO2 (Labrador Retrievers [2]; [13]): 3.65 L/kg/h
Mean VO2 (Labrador Retrievers [2]; [13]): 3.11 L/kg/h
Max VO2 (Labrador Retrievers [2]; [14]): 2.89 L/kg/h
Mean VO2 (Labrador Retrievers [2]; [14]): 2.66 L/kg/h
